In ChEMBL document CHEMBL1121625, “Crystal structures of calcium channel antagonists: 2,6-dimethyl-3,5-dicarbomethoxy-4-[2-nitro-, 3-cyano-, 4-(dimethylamino)-, and 2,3,4,5,6-pentafluorophenyl]-1,4-dihydropyridine” (1980) one finds ID50 data, which are given here for 4 molecules.

The species named for this assay is Cavia porcellus. The experiment in a line: The compound was tested for inhibition of muscarinic responses in guinea pig ileal longitudinal smooth muscle. In kind it is functional, Muscle tissue.
In turn, `COC(=O)C1=C(C)NC(C)=C(C(=O)OC)C1c1ccc(N(C)C)cc1` came in with an ID50 of 50000 nM.
In turn, `COC(=O)C1=C(C)NC(C)=C(C(=O)OC)C1c1ccccc1[N+](=O)[O-]` [NIFEDIPINE] registered an ID50 of 5.1 nM.
The same measure for `COC(=O)C1=C(C)N=C(C)/C(=C(\O)OC)C1c1cccc(C#N)c1` (centres undefined): 300 nM; for `COC(=O)C1=C(C)N=C(C)/C(=C(\O)OC)C1c1c(F)c(F)c(F)c(F)c1F` (centres undefined): 0.9 nM.
